According to patent US10563263B2, “Genetic polymorphisms associated with statin response and cardiovascular diseases, methods of detection and uses thereof” (CELERA CORPORATION, priority 2010, dated 2020):

Tested on: CVD (CHD or stroke)
Test: Meta-analysis of CARE and WOSCOPS combined, synergy index, CVD endpoint
Format: in vivo, human
Excerpt: Tables 4-5 provide meta-analyses of CARE and WOSCOPS combined (2nd section of each table) for two endpoints (CHD and CVD) and three genetic models (dominant, recessive, and additive), as well as logistic regression analyses of CARE (3rd section of each table) and WOSCOPS (4th section of each table) individually.
Tables 12 and 17 provide results of meta-analysis of the CARE and WOSCOPS sample sets combined by direct genotyping and by imputing genotypes.
“P” indicates the p-value, and “P(R)” (or “P.R.”) indicates the p-value random effect. Both of these are p-values corresponding to a statistical test of whether the combined synergy index is equal to one but use different assumptions to derive the p-value. “P” is calculated using a fixed effects model, and “P(R)” is calculated using a random effects model.
“OR” indicates the odds ratio (synergy index) calculated from a fixed effects model, and “OR(R)” (or “OR.R.”) indicates the odds ratio (synergy index) calculated from a random effects model.

CC[C@H](C)C(=O)O[C@H]1C[C@H](O)C=C2C=C[C@H](C)[C@H](CC[C@@H](O)C[C@@H](O)CC(=O)O)[C@H]21 [Pravastatin, pravastatin]
OR(R) (rs483159 allele T DOMINANT Imputed): 1.4202
OR(R) (rs489441 allele G ADDITIVE Imputed): 1.4992
OR(R) (rs489441 allele G DOMINANT Imputed): 1.6072
OR(R) (rs937890 allele G (A1), DOMINANT, Imputed): 0.6731
OR(R) (rs949016 allele C (A1), ADDITIVE, Imputed): 1.5082
OR(R) (rs966583 allele A (A1), ADDITIVE, Imputed): 0.7272
OR(R) (rs966583 allele A (A1), DOMINANT, Imputed): 0.5916
OR(R) (rs974130 allele A (A1), RECESSIVE, Genotyped): 2.0112
OR(R) (rs977160 allele T (A1), ADDITIVE, Imputed): 1.5465
OR(R) (rs985375 allele A (A1), GENOTYPIC, Imputed): 2.8891
OR(R) (rs4760895 allele A ADDITIVE Imputed): 0.7392
OR(R) (rs4760895 allele A DOMINANT Imputed): 0.6285
OR(R) (rs4760895 allele A GENOTYPIC Imputed): 0.574
OR(R) (rs4764738 allele A ADDITIVE Imputed): 1.4051
OR(R) (rs4764738 allele A GENOTYPIC Imputed): 1.9728
OR(R) (rs4764974 allele T ADDITIVE Imputed): 1.3855
OR(R) (rs4764974 allele T GENOTYPIC Imputed): 1.9196
OR(R) (rs4798366 allele G RECESSIVE Imputed): 1.8332
OR(R) (rs4836502 allele T DOMINANT Imputed): 0.6712
OR(R) (rs4836507 allele C DOMINANT Imputed): 0.6775
OR(R) (rs4836744 allele A ADDITIVE Imputed): 0.7345
OR(R) (rs4836744 allele A DOMINANT Imputed): 0.6854
OR(R) (rs4848944 allele C RECESSIVE Genotyped): 0.5819
OR(R) (rs4851529 allele A DOMINANT Imputed): 0.6476
OR(R) (rs4851531 allele T DOMINANT Imputed): 0.6602
OR(R) (rs4858046 allele T GENOTYPIC Genotyped): 2.0533
OR(R) (rs4878214 allele A ADDITIVE Imputed): 0.6477
OR(R) (rs4880803 allele A ADDITIVE Imputed): 0.7694
OR(R) (rs4896568 allele T DOMINANT Imputed): 0.6231
OR(R) (rs4938851 allele T DOMINANT Imputed): 1.4515
OR(R) (rs4964416 allele C DOMINANT Imputed): 0.6251
OR(R) (rs5756669 allele C DOMINANT Imputed): 1.6531
OR(R) (rs6033138 allele C ADDITIVE Imputed): 1.3837
OR(R) (rs6033138 allele C GENOTYPIC Imputed): 1.9484
OR(R) (rs6033138 allele C RECESSIVE Imputed): 1.6769
OR(R) (rs6040619 allele C ADDITIVE Imputed): 1.3881
OR(R) (rs6040619 allele C GENOTYPIC Imputed): 2.0334
OR(R) (rs6040619 allele C RECESSIVE Imputed): 1.7879
OR(R) (rs6040625 allele T ADDITIVE Imputed): 1.3888
OR(R) (rs6040625 allele T GENOTYPIC Imputed): 2.0214
OR(R) (rs6040625 allele T RECESSIVE Imputed): 1.7684
OR(R) (rs6040630 allele A ADDITIVE Imputed): 1.3767
OR(R) (rs6040630 allele A GENOTYPIC Imputed): 1.9741
OR(R) (rs6040630 allele A RECESSIVE Imputed): 1.7241
OR(R) (rs6040633 allele A ADDITIVE Imputed): 1.3703
OR(R) (rs6040633 allele A GENOTYPIC Imputed): 1.9475
OR(R) (rs6040633 allele A RECESSIVE Imputed): 1.6999
OR(R) (rs6040634 allele T ADDITIVE Imputed): 1.3722
OR(R) (rs6040634 allele T GENOTYPIC Imputed): 1.9531
OR(R) (rs6040634 allele T RECESSIVE Imputed): 1.7021
OR(R) (rs6040636 allele T ADDITIVE Imputed): 1.3761
OR(R) (rs6040636 allele T GENOTYPIC Imputed): 1.9585
OR(R) (rs6040636 allele T RECESSIVE Imputed): 1.7021
OR(R) (rs6040638 allele C ADDITIVE Imputed): 1.3722
OR(R) (rs6040638 allele C GENOTYPIC Imputed): 1.9531
OR(R) (rs6040638 allele C RECESSIVE Imputed): 1.7021
OR(R) (rs6040644 allele A ADDITIVE Imputed): 1.3722
OR(R) (rs9309988 allele G (A1), DOMINANT, Imputed): 1.9381
OR(R) (rs9309989 allele C (A1), DOMINANT, Genotyped): 1.9491
OR(R) (rs9310221 allele A (A1), DOMINANT, Imputed): 1.8519
OR(R) (rs9327555 allele T (A1), DOMINANT, Imputed): 0.5753
OR(R) (rs9454967 allele G (A1), ADDITIVE, Imputed): 2.1926
OR(R) (rs9454967 allele G (A1), DOMINANT, Imputed): 2.4795
OR(R) (rs9471295 allele T (A1), DOMINANT, Imputed): 1.5391
OR(R) (rs9477007 allele A (A1), ADDITIVE, Imputed): 1.429
OR(R) (rs9477007 allele A (A1), GENOTYPIC, Imputed): 2.0759
OR(R) (rs9487279 allele T (A1), DOMINANT, Imputed): 0.5948
OR(R) (rs9555973 allele G (A1), ADDITIVE, Imputed): 0.5479
OR(R) (rs9555973 allele G (A1), DOMINANT, Imputed): 0.5157
OR(R) (rs9557510 allele G (A1), ADDITIVE, Imputed): 1.6102
OR(R) (rs9557510 allele G (A1), DOMINANT, Imputed): 1.7706
OR(R) (rs9560584 allele T (A1), DOMINANT, Imputed): 0.512
OR(R) (rs9588770 allele T (A1), DOMINANT, Imputed): 0.5187
OR(R) (rs9588848 allele C (A1), ADDITIVE, Imputed): 0.5369
OR(R) (rs9588848 allele C (A1), DOMINANT, Imputed): 0.5009
OR(R) (rs9812206 allele G (A1), ADDITIVE, Imputed): 0.4469
OR(R) (rs9812206 allele G (A1), DOMINANT, Imputed): 0.4369
OR(R) (rs9813552 allele G (A1), ADDITIVE, Imputed): 0.4493
OR(R) (rs9813552 allele G (A1), DOMINANT, Imputed): 0.4387
OR(R) (rs9815037 allele T (A1), ADDITIVE, Imputed): 0.4461
OR(R) (rs9815037 allele T (A1), DOMINANT, Imputed): 0.4354
OR(R) (rs9825349 allele A (A1), ADDITIVE, Imputed): 0.4461
OR(R) (rs9825349 allele A (A1), DOMINANT, Imputed): 0.4354
OR(R) (rs9834217 allele T (A1), ADDITIVE, Imputed): 0.4466
OR(R) (rs9834217 allele T (A1), DOMINANT, Imputed): 0.4359
OR(R) (rs9840460 allele T (A1), ADDITIVE, Imputed): 0.4461
OR(R) (rs9840460 allele T (A1), DOMINANT, Imputed): 0.4354
OR(R) (rs9840756 allele A (A1), ADDITIVE, Imputed): 0.4458
OR(R) (rs9840756 allele A (A1), DOMINANT, Imputed): 0.435
OR(R) (rs9844801 allele C (A1), DOMINANT, Imputed): 1.9381
OR(R) (rs9869187 allele C (A1), ADDITIVE, Imputed): 0.4651
OR(R) (rs9869187 allele C (A1), DOMINANT, Imputed): 0.4704
OR(R) (rs9872327 allele T (A1), DOMINANT, Imputed): 1.9381
OR(R) (rs9881685 allele A (A1), ADDITIVE, Imputed): 0.4438
OR(R) (rs9881685 allele A (A1), DOMINANT, Imputed): 0.4332
OR(R) (rs9909499 allele C (A1), DOMINANT, Imputed): 1.4669
OR(R) (rs9911847 allele G (A1), DOMINANT, Imputed): 0.6755
OR(R) (rs9946886 allele G (A1), RECESSIVE, Imputed): 0.3084
OR(R) (rs9958823 allele A (A1), ADDITIVE, Imputed): 1.5292
OR(R) (rs9965248 allele T (A1), ADDITIVE, Imputed): 1.4965
